One assay concerns Japanese bulrush. The assay is described as follows: Test Example 2: herbicidal activity, application during weed generation under submerged conditions (Table 17, symbol B). The assay is classed as in vivo, Japanese bulrush (Schoenoplectus juncoides). Particulars: AAH 320 g/ha; application during weed generation, submerged conditions. Put shortly:
(§1)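 In this pot test, flooded alluvial soil (water depth 4 cm) holds all three species sown as a mixture. Once seedlings have one to two leaves, the compound's emulsion, thinned with water to the intended dose, is poured on the water; grading follows after three weeks on the earlier criteria.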

In the next assay the test system is persian speedwell. The assay is described as follows: Test Example 5: herbicidal effect by foliage application, plastic box (Table 20, symbol R). The assay is classed as in vivo, Persian speedwell (Veronica persica). Particulars: foliage application, AAH 320 g/ha, three weeks after application. The gist of the method:
(§2)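 Plants were sown into sterilized diluvial soil under about 1.5 cm cover and kept in a greenhouse at 25° C. to 30° C. Fourteen days on, foliage received an even spray of the diluted emulsion. Herbicidal or crop effect was judged three weeks afterwards.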

Another assay has as its system southern crabgrass. The assay is described as follows: Test Example 4: herbicidal effect by soil treatment (Table 19, symbol F). The class given is in vivo, southern crabgrass (Digitaria ciliaris). The gist of the method:
(§3)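 Pre-emergence style soil spray: seeds under ~1.5 cm sterilized diluvial soil received a uniform coat of emulsion diluted to the predetermined herbicide amount. Greenhouse 25–30° C; readout at week three on previously defined criteria.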

The test system of assay [1] is green foxtail. In words: Test Example 5: herbicidal effect by foliage application, plastic box (Table 20, symbol G). Particulars: foliage application, AAH 320 g/ha, three weeks after application. The assay is classed as in vivo, green foxtail (Setaria viridis). Put shortly: as §2
For a further assay, the system named is barnyard grass. The assay is described as follows: Test Example 4: herbicidal effect by soil treatment (Table 19, symbol H). The class given is in vivo, barnyard grass (Echinochloa crus-galli). The gist of the method: as §3
Another assay has as its system late watergrass. The assay is described as follows: Test Example 2: herbicidal activity, application during weed generation under submerged conditions (Table 17, symbol A). The following applies: AAH 320 g/ha; application during weed generation, submerged conditions. The assay is classed as in vivo, late watergrass (Echinochloa oryzicola). The gist of the method:
as §1

The subject of the next assay is Italian ryegrass. The assay is described as follows: Test Example 5: herbicidal effect by foliage application, plastic box (Table 20, symbol K). The class given is in vivo, Italian ryegrass (Lolium multiflorum). Particulars: foliage application, AAH 320 g/ha, three weeks after application. Put shortly:
as §2

For the next assay, the system named is wild oat. The assay is described as follows: Test Example 4: herbicidal effect by soil treatment (Table 19, symbol I). The assay is classed as in vivo, wild oat (Avena fatua). Put shortly: as §3
For assay [2], the system named is false cleavers. In words: Test Example 4: herbicidal effect by soil treatment (Table 19, symbol Q). The assay is classed as in vivo, false cleavers (Galium spurium). The gist of the method:
as §3

Assay [3] relates to false cleavers. The assay is described as follows: Test Example 5: herbicidal effect by foliage application, plastic box (Table 20, symbol Q). The class given is in vivo, false cleavers (Galium spurium). Particulars: foliage application, AAH 320 g/ha, three weeks after application. The gist of the method: as §2
Another assay relates to velvetleaf. The assay is described as follows: Test Example 4: herbicidal effect by soil treatment (Table 19, symbol M). The class given is in vivo, velvetleaf (Abutilon theophrasti). The gist of the method: as §3
In another assay the test system is redroot pigweed. In words: Test Example 4: herbicidal effect by soil treatment (Table 19, symbol N). The class given is in vivo, redroot pigweed (Amaranthus retroflexus). Put shortly:
as §3

The test system of another assay is blackgrass. In words: Test Example 4: herbicidal effect by soil treatment (Table 19, symbol J). The assay is classed as in vivo, blackgrass (Alopecurus myosuroides). Put shortly:
as §3

A further assay concerns lambsquarters. The assay is described as follows: Test Example 5: herbicidal effect by foliage application, plastic box (Table 20, symbol O). The class given is in vivo, lambsquarters (Chenopodium album). The following applies: foliage application, AAH 320 g/ha, three weeks after application. The gist of the method: as §2
Assay [4] relates to green foxtail. The assay is described as follows: Test Example 4: herbicidal effect by soil treatment (Table 19, symbol G). The assay is classed as in vivo, green foxtail (Setaria viridis). The gist of the method:
as §3

For a further assay, the system named is oval-leafed pondweed. The assay is described as follows: Test Example 2: herbicidal activity, application during weed generation under submerged conditions (Table 17, symbol C). The class given is in vivo, oval-leafed pondweed (Monochoria vaginalis). Particulars: AAH 320 g/ha; application during weed generation, submerged conditions. Put shortly: as §1
Where [5] appears, read: amount of applied herbicide 320 g/ha.

Consider `CCCC(=O)Oc1c(C)nn(C)c(=O)c1-c1c(-c2ccc3c(c2)CCO3)sc2ccccc12` [1-102], for which, in the assay on Japanese bulrush, the “herbicidal effect rating, B: Japanese bulrush” value is 5 (Herbicidal rate of 90% or more (almost completely withered)). For the same molecule, the “R: persian speedwell, herbicidal effect” value with persian speedwell is 5 (Herbicidal rate of 90% or more (almost completely withered)). The “herbicidal effect rating, F: southern crabgrass” value with southern crabgrass (setting [5]) is 2 (Herbicidal rate of 20% or more and less than 40%). In the assay on green foxtail [1], the “G: green foxtail, herbicidal effect” value is listed as 5 (Herbicidal rate of 90% or more (almost completely withered)). Besides, the “herbicidal effect rating, H: barnyard grass” value with barnyard grass (setting [5]) is 3 (Herbicidal rate of 40% or more and less than 70%). Also, the “herbicidal effect rating, A: late watergrass” value in the assay with late watergrass was 3 (Herbicidal rate of 40% or more and less than 70%). The “K: Italian ryegrass, herbicidal effect” value with Italian ryegrass is 3 (Herbicidal rate of 40% or more and less than 70%). For the same molecule, the “herbicidal effect rating, I: wild oat” value with wild oat (setting [5]) was 1 (Herbicidal rate of 5% or more and less than 20%). For the same molecule, in the assay with false cleavers [2] (setting [5]), the “herbicidal effect rating, Q: false cleavers” value is on record as 0 (Herbicidal rate of 5% or less (almost no effect)). Besides, the “Q: false cleavers, herbicidal effect” value in the assay on false cleavers [3] is 1 (Herbicidal rate of 5% or more and less than 20%). For the same molecule, the “herbicidal effect rating, M: velvetleaf” value in the assay on velvetleaf (setting [5]) is 1 (Herbicidal rate of 5% or more and less than 20%). Moreover, the “herbicidal effect rating, N: redroot pigweed” value in the assay with redroot pigweed (setting [5]) is 4 (Herbicidal rate of 70% or more and less than 90%). The “herbicidal effect rating, J: blackgrass” value with blackgrass (setting [5]) is given as 0 (Herbicidal rate of 5% or less (almost no effect)). In addition, the “O: lambsquarters, herbicidal effect” value with lambsquarters is 4 (Herbicidal rate of 70% or more and less than 90%). Moreover, the “herbicidal effect rating, G: green foxtail” value with green foxtail [4] (setting [5]) is listed as 5 (Herbicidal rate of 90% or more (almost completely withered)). In addition, in the assay on oval-leafed pondweed, the “herbicidal effect rating, C: oval-leafed pondweed” value is 5 (Herbicidal rate of 90% or more (almost completely withered)).

Consider `COCc1ccc(-c2sc3ccccc3c2-c2c(O)c(C)nn(C)c2=O)cc1` [1-131], for which, in the assay on Japanese bulrush, the “herbicidal effect rating, B: Japanese bulrush” value was 1 (Herbicidal rate of 5% or more and less than 20%). Also, the “R: persian speedwell, herbicidal effect” value in the assay on persian speedwell is given as 5 (Herbicidal rate of 90% or more (almost completely withered)). For the same molecule, the “F: southern crabgrass, herbicidal effect rating” value in the assay on southern crabgrass (AAH 320 g/ha) is 4 (Herbicidal rate of 70% or more and less than 90%). Besides, the “G: green foxtail, herbicidal effect” value in the assay on green foxtail [1] is given as 5 (Herbicidal rate of 90% or more (almost completely withered)). Further, in the assay with barnyard grass (AAH 320 g/ha), the “H: barnyard grass, herbicidal effect rating” value is 5 (Herbicidal rate of 90% or more (almost completely withered)). For the same molecule, in the assay on late watergrass, the “herbicidal effect rating, A: late watergrass” value is 0 (Herbicidal rate of 5% or less (almost no effect)). The “K: Italian ryegrass, herbicidal effect” value with Italian ryegrass is listed as 5 (Herbicidal rate of 90% or more (almost completely withered)). Also, the “I: wild oat, herbicidal effect rating” value in the assay on wild oat (AAH 320 g/ha) was 2 (Herbicidal rate of 20% or more and less than 40%). Besides, the “Q: false cleavers, herbicidal effect rating” value in the assay with false cleavers [2] (AAH 320 g/ha) is reported as 0 (Herbicidal rate of 5% or less (almost no effect)). Also, the “Q: false cleavers, herbicidal effect” value with false cleavers [3] is 4 (Herbicidal rate of 70% or more and less than 90%). Moreover, in the assay on velvetleaf (AAH 320 g/ha), the “M: velvetleaf, herbicidal effect rating” value is 5 (Herbicidal rate of 90% or more (almost completely withered)). Also, in the assay on redroot pigweed (AAH 320 g/ha), the “N: redroot pigweed, herbicidal effect rating” value is 5 (Herbicidal rate of 90% or more (almost completely withered)). In addition, in the assay on blackgrass (AAH 320 g/ha), the “J: blackgrass, herbicidal effect rating” value is 1 (Herbicidal rate of 5% or more and less than 20%). Moreover, the “O: lambsquarters, herbicidal effect” value in the assay on lambsquarters was 5 (Herbicidal rate of 90% or more (almost completely withered)). In addition, the “G: green foxtail, herbicidal effect rating” value in the assay on green foxtail [4] (AAH 320 g/ha) was 5 (Herbicidal rate of 90% or more (almost completely withered)). Moreover, in the assay on oval-leafed pondweed, the “herbicidal effect rating, C: oval-leafed pondweed” value is 3 (Herbicidal rate of 40% or more and less than 70%).

The values above are taken from US20230085307A1, “PYRIDAZINONE COMPOUND AND HERBICIDE” (NISSAN CHEMICAL CORPORATION, priority 2019, published 2023).
